# From publication PMC11359702, “Synthesis and Biochemical Evaluation of Ethanoanthracenes and Related Compounds: Antiproliferative and Pro-Apoptotic Effects in Chronic Lymphocytic Leukemia (CLL)” (Pharmaceuticals, 2024)
# Values joined by “and” are separate entries in the source; they are usually repeats but may differ in a detail not shown here. Equal values may be shown once. Read-outs that look alike come from different tables or passages of the source.
# What was measured:
# [1] = tested on: NCI 60 cancer cell line panel; assay: NCI-60 five-dose assay, full-panel means; format: cell-based; details: for GI50: read-out: Mean GI50 (MID GI50, full-panel mean-graph mid-point)
# Experimental: A number of our most promising compounds identified through preliminary cell viability testing (23c, 23d, 23f, 23h, 23l, 23m, 23n, 23o, 24f, 24l, 25n and 26n) were selected for NCI drug screening in the 60-cell-line panel. The panel includes nine subcategories based on cancer tissue types, which include leukemia, ovarian, central nervous system, breast, lung, prostate, skin, renal and colon cancer. The compounds were initially assessed in a one-dose assay at a fixed treatment concentration of 10 µM. The compounds selected for further investigation were progressed to a five-dose assay across the concentration ranges of 0.01, 0.1, 1, 10 and 100 µM [72]. The endpoints assessed in the screening protocol were GI50, TGI and LC50 [72].
# [2] = tested on: K-562; assay: NCI-60 five-dose assay; format: cell-based, human
# [3] = tested on: CCRF-CEM; assay: NCI-60 five-dose assay; format: cell-based, human
# [4] = tested on: HL-60(TB); assay: NCI-60 five-dose assay; format: cell-based, human
# [5] = tested on: SR; assay: NCI-60 five-dose assay; format: cell-based, human
# [6] = tested on: MOLT-4; assay: NCI-60 five-dose assay; format: cell-based, human
# [7] = tested on: leukemia cell panel; assay: NCI-60 five-dose assay, leukemia cell panel mean; format: cell-based, human; details: mean across the six leukemia cell lines
# [8] = tested on: RPMI-8226; assay: NCI-60 five-dose assay; format: cell-based, human
# [9] = tested on: HG-3 and PGA-1 cell lines; assay: alamarBlue cell viability assay, mean of both CLL cell lines; format: cell-based, human; details: mean of HG-3 and PGA-1
# [10] = tested on: HG-3 cells; assay: alamarBlue cell viability assay; details: for IC50: HG-3, 24 h, read-out: HG-3 IC50
# [11] = tested on: PGA-1 cells; assay: alamarBlue cell viability assay; details: for IC50: read-out: PGA-1 IC50
# [12] = tested on: PGA-1 cells; details: 10 µM
# [13] = tested on: HG-3 cells
# [14] = HPLC stability study in phosphate buffers; format: physicochemical; details: for Half-life pH 4 / % remaining 24 h pH 4: pH 4 buffer; for Half-life pH 4 / % remaining 24 h pH 4 / Half-life pH 7.4 / % remaining 24 h pH 7.4 / Half-life pH 9 / % remaining 24 h pH 9: 37 °C; for % remaining 24 h pH 4 / % remaining 24 h pH 7.4 / % remaining 24 h pH 9: HPLC; for Half-life pH 7.4 / % remaining 24 h pH 7.4: pH 7.4 buffer; for Half-life pH 9 / % remaining 24 h pH 9: pH 9 buffer
# Experimental: A preliminary stability study was carried out on selected chalcones, maleic anhydride and maleimide adducts at acidic, neutral and basic conditions (pH 4, 7.4 and 9) using HPLC to determine suitability for further preclinical investigations. […] A possible degradation route for the maleimide 23n could be through the hydrolysis of the cyclic imide of the maleimide ring, leading to the resultant amic acid product.
# All samples were analyzed using acetonitrile–water (80:20%, 70:30%, 60:40% isocratic) as the mobile phase over 10 min and a flow rate of 1 mL/min. Stock solutions were prepared by dissolving 5 mg of compounds in a mobile phase ([(acetonitrile (80%): water (20%)], 10 mL). Anhydride 22h was not detected at its retention time of 5.2 min at pH 9.0. The data presented represent the results of single experiments.
# The HPLC stability studies for compounds 21a, 21i, 22h, 23a, 23g, 23n, 24a, 24h, 26a and 26n were performed using a Symmetry® column (C18, 5 µm, 4.6 × 150 mm), a Waters 2487 Dual Wavelength Absorbance detector, and an HPLC pump: Waters 1525 binary and Autosampler; Waters 717 plus (Waters Corporation, Milford, MA, USA), mobile phase [(acetonitrile (80%) and water (20%)] with a typical run time of 10 min and a flow rate of 1 mL/min with detection at 254 nm. The selected compounds 21a, 21i, 22h, 23a, 23g, 23n, 24a, 24h, 26a and 26n (5 mg) in the mobile phase (10 mL) provided the stock solution for the analysis. The phosphate buffers were prepared at pH values of 4, 7.4 and 9, as described in the British Pharmacopoeia monograph 2019. The stock solution (30 µL) was added to the appropriate buffer (1 mL) and retained at 37 °C. Samples were then analyzed over the following 24-h period at selected time intervals (t = 0 min, 5 min, 30 min, 60 min, 90 min, 120 min and 24 h).
# [15] = mean over NCI 60 cell line panel
molecule,measurement,setting,value
O=C(/C=C/C12c3ccccc3C(c3ccccc31)C1C(=O)NC(=O)C12)c1ccc(Cl)cc1Cl (stereo not shown) [Compound 23d],CC50,[1],29500 nM
same,"Mean TGI (MID TGI, total growth inhibition)",[1]; [15],7580 nM
same,GI50,[1]; [15],2510 nM
same,GI50,[2]; K-562,2190 nM
same,GI50,[3],1240 nM
same,GI50,[4]; HL-60(TB),1580 nM
same,GI50,[5],1250 nM
same,GI50,[6]; MOLT-4,2160 nM
same,GI50,[7],1590 nM
same,GI50,[8]; RPMI-8226,1100 nM
"O=C(/C=C/C12c3ccccc3C(c3ccccc31)C1C(=O)NC(=O)C12)c1ccccc1 (stereo not shown) [Compound 23f, (E)-9-(3-oxo-3-phenylprop-1-en-yl)-9,10-dihydro-9,10-[3,4]epipyrroloanthracene-12,14-dione]",GI50,"[1]; Homo sapiens, mean over NCI 60 cell line panel",1820 nM
same,CC50,"[1]; Homo sapiens, mean over NCI 60 cell line panel, read-out: Mean LC50 (MID LC50)",14800 nM
same,"Mean TGI (MID TGI, total growth inhibition)",[1]; [15],4570 nM
same,IC50,"[9]; Homo sapiens, CLL cell",7430 nM
same,GI50,"[2]; Homo sapiens, K562, K-562",1940 nM
same,cell viability,"[10]; HG-3, 10 µM, 24 h, vehicle = 100%, 10 µM",2%
same,IC50,[10]; Homo sapiens,3550 nM
same,GI50,[3]; Homo sapiens,2160 nM
same,GI50,"[4]; Homo sapiens, HL-60, HL-60(TB)",1500 nM
same,GI50,[5]; Homo sapiens,1570 nM
same,GI50,"[6]; Homo sapiens, MOLT-4, MOLT-4",2170 nM
same,IC50,"[11]; Homo sapiens, 24 h",11300 nM
same,viability at 10 µM,"[11]; Homo sapiens, 24 h, read-out: cell viability",13.9%
same,GI50,[7]; Homo sapiens,1810 nM
same,GI50,"[8]; Homo sapiens, RPMI-8226, RPMI-8226",1520 nM
O=C(/C=C/C12c3ccccc3C(c3ccccc31)C1C(=O)NC(=O)C12)c1ccc(I)cc1 (stereo not shown) [Compound 23g],cell viability,[12],2%
same,IC50,[9],3620 nM
same,IC50,[10],4470 nM
same,cell viability,[13]; 10 µM,0%
same,IC50,"[11]; PGA-1, 24 h",2770 nM
same,recovery at 24 h,"[14]; over the pH range studied (pH 4, 7.4 and 9)",< 50%
same,Half-life pH 4,[14],11.3 h
same,% remaining 24 h pH 4,[14],7.98%
same,Half-life pH 7.4,[14],8.9 h
same,% remaining 24 h pH 7.4,[14],11.02%
same,Half-life pH 9,[14],5.5 h
same,% remaining 24 h pH 9,[14],10.50%
O=C(/C=C/C12c3ccccc3C(c3ccccc31)C1C(=O)NC(=O)C12)c1ccncc1 (stereo not shown) [Compound 23m],CC50,[1],28200 nM
same,"Mean TGI (MID TGI, total growth inhibition)",[1]; [15],7760 nM
same,GI50,[1]; [15],2510 nM
same,GI50,[2]; K-562,1880 nM
same,GI50,[3],2390 nM
same,GI50,[4]; HL-60(TB),1760 nM
same,GI50,[5],1760 nM
same,GI50,[6]; MOLT-4,2570 nM
same,GI50,[7],2080 nM
same,GI50,[8]; RPMI-8226,2110 nM
O=C(/C=C/C12c3ccccc3C(c3ccccc31)C1C(=O)NC(=O)C12)c1ccco1 (stereo not shown) [Compound 23o],CC50,[1],11000 nM
same,"Mean TGI (MID TGI, total growth inhibition)",[1]; [15],3890 nM
same,GI50,[1]; [15],1780 nM
same,GI50,[2]; K-562,2570 nM
same,GI50,[3],1890 nM
same,GI50,[4]; HL-60(TB),320 nM
same,GI50,[6]; MOLT-4,1770 nM
same,GI50,[7],1640 nM
same,GI50,[8]; RPMI-8226,1680 nM
O=C(/C=C/C12c3ccccc3C(c3ccccc31)C1C(=O)NC(=O)C12)c1ccc2ccccc2c1 (stereo not shown) [Compound 23p],cell viability,[12],0%
same,IC50,[9],1360 nM
same,IC50,[10],1410 nM
same,cell viability,[13]; 1 µM,46%
same,cell viability,[13]; 10 µM,0%
same,IC50,"[11]; PGA-1, 24 h",1300 nM
"O=C(C=CC12c3ccccc3C(c3ccccc31)C1C(=O)N(c3ccccc3)C(=O)C12)c1ccc([N+](=O)[O-])cc1 (stereo not shown) [Compound 24b, 9-(E)-3-(4-Nitrophenyl)-3-oxoprop-1-en-1-yl)-13-phenyl-9,10-dihydro-9,10-[3,4]epipyrroloanthracene-12,14-dione]",cell viability,[12],22%
same,cell viability,[13]; 10 µM,10%
"O=C(C=CC12c3ccccc3C(c3ccccc31)C1C(=O)N(c3ccccc3)C(=O)C12)c1ccco1 (stereo not shown) [Compound 24o, 9-(E)-3-(Furan-2-yl)-3-oxoprop-1-en-1-yl)-13-phenyl-9,10-dihydro-9,10-[3,4]epipyrroloanthracene-12,14-dione]",cell viability,[12],9%
same,cell viability,[13]; 10 µM,3%
"O=C(C=CC12c3ccccc3C(c3ccccc31)C1C(=O)N(c3ccc(Cl)cc3)C(=O)C12)c1ccc(I)cc1 (stereo not shown) [Compound 25g, (E)-13-(4-Chlorophenyl)-9-(3-(4-iodophenyl)-3-oxoprop-1-en-1-yl)-9,10-dihydro-9,10-[3,4]epipyrroloanthracene-12,14-dione]",cell viability,[12],33%
"O=C(C=CC12c3ccccc3C(c3ccccc31)C1C(=O)N(c3ccc(Cl)cc3)C(=O)C12)c1ccc(Cl)cc1 (stereo not shown) [Compound 25l, (E)-13-(4-Chlorophenyl)-9-(3-(4-chlorophenyl)-3-oxoprop-1-en-1-yl)-9,10-dihydro-9,10-[3,4]epipyrroloanthracene-12,14-dione]",cell viability,[12],24%
"O=C(C=CC12c3ccccc3C(c3ccccc31)C1C(=O)N(c3ccc(Cl)cc3)C(=O)C12)c1ccco1 (stereo not shown) [Compound 25o, (E)-13-(4-Chlorophenyl)-9-(3-(furan-2-yl)-3-oxoprop-1-en-1-yl)-9,10-dihydro-9,10-[3,4]epipyrroloanthracene-12,14-dione]",cell viability,[12],14%
same,cell viability,[13]; 10 µM,5%
"O=C(/C=C/C12c3ccccc3C(c3ccccc31)C1C(=O)N(c3ccc(C(=O)c4ccccc4)cc3)C(=O)C12)c1ccc(Br)cc1 (stereo not shown) [Compound 26a, (E)-13-(4-Benzoylphenyl)-9-(3-(4-bromophenyl)-3-oxoprop-1-en-1-yl)-9,10-dihydro-9,10-[3,4]epipyrroloanthracene-12,14-dione]",cell viability,[12],29%
same,decrease in cell viability compared to 26f,"[10]; HG-3, 1 µM",64%
same,decrease in cell viability compared to 26f,"[10]; HG-3, 10 µM",29%
same,cell viability,[13]; 1 µM,55%
same,cell viability,[13]; 10 µM,31%
same,decrease in cell viability compared to 26f,"[11]; PGA-1, 1 µM",70%
same,decrease in cell viability compared to 26f,"[11]; PGA-1, 10 µM",20%
same,Half-life pH 4,[14],> 24 h
same,% remaining 24 h pH 4,[14],64% and 63.95%
same,Half-life pH 7.4,[14],> 24 h
same,% remaining 24 h pH 7.4,[14],61% and 61.03%
same,Half-life pH 9,[14],> 24 h
same,% remaining 24 h pH 9,[14],66%
"O=C(/C=C/C12c3ccccc3C(c3ccccc31)C1C(=O)N(c3ccc(C(=O)c4ccccc4)cc3)C(=O)C12)c1ccncc1 (stereo not shown) [Compound 26m, (E)-13-(4-Benzoylphenyl)-9-(3-oxo-3-(pyridin-4-yl)prop-1-en-1-yl)-9,10-dihydro-9,10-[3,4]epipyrroloanthracene-12,14-dione]",cell viability,[12],17%
same,decrease in cell viability compared to 26f,"[10]; HG-3, 1 µM",64%
same,decrease in cell viability compared to 26f,"[10]; HG-3, 10 µM",59%
same,cell viability,[13]; 10 µM,27%
same,decrease in cell viability compared to 26f,"[11]; PGA-1, 1 µM",64%
"O=C(c1ccccc1)c1ccc(N2C(=O)C3C4c5ccccc5C(C=CC(=O)c5ccco5)(c5ccccc54)C3C2=O)cc1 (stereo not shown) [Compound 26o, (E)-13-(4-Benzoylphenyl)-9-(3-(furan-2-yl)-3-oxoprop-1-en-1-yl)-9,10-dihydro-9,10-[3,4]epipyrroloanthracene-12,14-dione]",cell viability,[12],9%
same,cell viability,[13]; 10 µM,15%
"(E)-13-(4-Chlorophenyl)-9-(3-(4-nitrophenyl)-3-oxoprop-1-en-1-yl)-9,10-dihydro-9,10-[3,4]epipyrroloanthracene-12,14-dione [Compound 25b]",cell viability,[12],34%
same,cell viability,[13]; 10 µM,35%
"(E)-13-(4-Chlorophenyl)-9-(3-oxo-3-(pyridin-4-yl)prop-1-en-1-yl)-9,10-dihydro-9,10-[3,4]epipyrroloanthracene-12,14-dione [Compound 25m]",cell viability,[12],28%
same,cell viability,[13]; 10 µM,8%
